Entries after “also recorded” stand apart in the source; their conditions may differ. Read-outs that look alike come from different tables or passages of the source.
Experiments:
[1] = MM xenograft mouse model, body weight / systemic toxicity; assay type: in vivo, C.B.-17 SCID mice; conditions: 1 mg/kg bortezomib equivalent, intravenous, days 1, 4, 8, and 11
Method: MM Xenograft Mouse Model. C.B.-17 SCID mice (Harlan Laboratories) were irradiated with 150 rad and were inoculated subcutaneously with 5×10^6 NCI-H929 cells. When tumors were palpable, mice were distributed into 6 groups of 5 mice and were treated intravenously with the various bortezomib pro-drugs, free bortezomib, or vehicle (PBS), on days 1, 4, 8, and 11. Animals were monitored for body weight and tumor volume.
Liposomal Pro-Drugs Inhibit Tumor Growth with Reduced Systemic Toxicity In Vivo. […] Thus, in vivo studies were performed on C.B-17 SCID mice injected with NCI-H929 tumors to evaluate the efficacy of the liposomal pro-drugs in inhibiting tumor growth and limiting toxicity. The mice were divided into six groups (control, free bortezomib, and one group for each pro-drug) of five mice. The mice were monitored for body weight and tumor volume every other day. When the tumors became palpable, intravenous injections of the respective bortezomib formulations at a dose of 1 mg/kg bortezomib equivalent nanoparticles were performed on days 1, 4, 8, and 11.

[2] = tested on: MCF7 cells (very low HER2 expression); test: Cellular binding assay, flow cytometry (MCF7); conditions: fluorescein labeled peptide, negative control cell line
Method: (§1) HER2 or VLA-4 Expression Analysis and Cell-Based Peptide Binding Assays. For antibody binding assays, cells were incubated with the primary antibody in binding buffer (1.5% BSA in PBS pH 7.4) on ice for 1 hour and were washed twice. Fluorescein conjugated secondary antibody was added for 1 hour on ice, samples were washed, and analyzed on Guava easyCyte 8HT flow cytometer (Millipore). For cell-based peptide binding assays, cells were incubated with increasing concentrations of fluorescein-conjugated peptides for 2 hours on ice. Samples were washed twice and analyzed on Guava easyCyte 8HT flow cytometer.

[3] = target: extracellular HER2 domain (Homo sapiens, UniProt P04626); conditions: reported by Berezov et al., recombinant soluble HER2 protein; cited from earlier work
[4] = tested on: MM.1S myeloma cells (VLA-4 expressing); test: Cell-based peptide binding assay (MM.1S); conditions: fluorescein labeled peptide, MM.1S cells, flow cytometry; read-out: apparent Kd
Method: (§2) Receptor Expression Analysis and Cell-Based Peptide Binding Assays. For VLA-4 expression assays, cells were incubated with anti-CD49d (phycoerythrin) or anti-CD29 (fluorescein) antibodies (BD Biosciences, San Jose, Calif.) in binding buffer (1.5% BSA in PBS pH 7.4) on ice for 1 hour and were washed twice. For HER2 expression assays, cells were incubated with primary antibody in binding buffer on ice for 1 hour and washed twice. Fluorescein conjugated secondary antibody was added for 1 hour on ice, samples were washed, and analyzed on Guava easyCyte 8HT flow cytometer (Millipore). Isotype matched antibodies were used as negative controls. For cell-based peptide binding assays, cells were incubated with increasing concentrations of fluorescein-conjugated peptides for 2 hours on ice. Samples were washed twice and analyzed on Guava easyCyte 8HT flow cytometer.

[5] = tested on: VLA-4-overexpressing multiple myeloma cells; test: In vitro nanoparticle uptake, result stated jointly for the myeloma lines; assay type: cell-based; conditions: competition experiment, NCI-H929 and MM.1S
Method: In Vitro Liposome Uptake and Binding Assays. 1×10^5 cells/well were plated 24 hours prior to each experiment in a 24 well dish. Liposomes were added at 100 μM phospholipid concentration and incubated for 3 hours at 37° C. 0.2% fluorescein PE was added as a fluorescent marker to each liposomal formulation. For adherent cells, after incubation, cells were washed 3 times with PBS, trypsinized, and analyzed via flow cytometry. For suspension cells, after incubation, cells were washed 3 times with PBS and analyzed via flow cytometry. For binding assays, adherent cells were scraped from the surface of a confluent dish, placed in growth media, and incubated on ice for 30 minutes. Liposomes were added at variable concentrations and incubated for 2 hours on ice. After incubation, cells were washed 3 times with PBS and analyzed via flow cytometry.
In Vitro Nanoparticle Uptake Assays. 1×10^5 cells/well were plated 24 hours prior to each experiment in a 24 well dish. Nanoparticles were added at 100 μM phospholipid concentration and incubated for 3 hours at 37° C. […] For suspension cells, after incubation, cells were washed 3 times with PBS and analyzed via flow cytometry. For adherent cells, after incubation, cells were washed 3 times with PBS, trypsinized, and analyzed via flow cytometry.

[6] = tested on: NCI-H929 myeloma cells (VLA-4 expressing); test: Cell-based peptide binding assay (NCI-H929); conditions: fluorescein labeled peptide, flow cytometry, read-out: apparent Kd
Method: as §1
as §2, with “For cell-based peptide binding assays, cells were incubated with increasing concentrations of fluorescein-conjugated peptides for 2 hours on ice.” left out

CC(C)C[C@H](NC(=O)[C@H](Cc1ccccc1)NC(=O)c1cnccn1)B(O)O [free bortezomib, bortezomib]
systemic toxicity [1]: moribundity on day 7; also recorded: moribundity by day 7

YCDGFYACYMDV [HER2-pep]
binding to MCF7 cells [2]: minimal binding
Kd [3]: 150 nM

YCDPC [VLA4-pep]
Kd [4]: 250 nM
inhibition of uptake of VLA-4-targeted liposomes by excess free peptide ([5]; LPVLA4pep(K3)): efficient inhibition of uptake
inhibition of uptake of VLA-4-targeted micelles by free peptide ([5]; micelles with VLA4pep(K3)): significant inhibition
Kd ([6]; listed as VLA4pep): 250 nM
Kd [6]: ~250 nM

Reference: US10342846B2, “Nanoparticle drug delivery systems” (University of Notre Dame du Lac, priority 2013, dated 2019)
